# Data: patent publication US20200407712A1, “ARRAY-BASED CYCLIC PEPTIDE LIBRARIES” (HealthTell Inc., priority 2018, published 2020)
# Legend:
# [1] = intramolecular disulfide formation by ambient air oxidation of bis-Cys peptides on SiO2 array surface after side-chain deprotection (TFA/TMS-OTf) and NH3-gas DKP detachment; fraction oxidized from MALDI relative peak intensities; settings: the molecule shown is the open-chain precursor, none (dry film on SiO2, ambient air), other, 18.0 h, scale: fraction oxidized
# Rituximab [2] = experiment: Rituximab binding to constrained peptide arrays
# Procedure: Cyclized and linear microarrays from Click and lactam wafers were probed using a seven point dilution series of Rituximab (Creative Diagnostics, TAB-016) ranging from 24.0 nM to 0.032 nM with threefold steps. Bound Rituximab was detected using an anti-human IgG-Alexa Fluor™ 555 (Thermo-Fisher) at 4.0 nM. All incubation times were for 1 hr and washes between incubation steps were conducted using Phosphate Buffered Saline with 0.05% Tween 20 (PBST). After the secondary detection step, slides were sequentially washed using PBST, distilled water and a 90% isopropanol rinse. Slides were immediately dried by centrifugation following the isopropanol rinse. Imaged arrays were gridded using commercial software to extract intensities from individual features. Data was analyzed using a custom R script. For both chemistries tested, 24.0 nM Rituximab gave the greatest differential between linear and cyclic copies of the same peptide (present on the same array) and was used for example boxplots. […] In the peptide sequence, B and X represent lactam cyclization residues Lys and Glu respectively. Individual feature replicates for BAEANPSX (cyclic) and BAEANPS (linear) from replicate arrays assayed on two separate slides were used to prepare the boxplot. A p-value comparing the replicate feature intensities was calculated using the anova function in R.
# Rituximab [3] = experiment: Rituximab binding to biotinyl peptides captured on streptavidin ELISA plates; settings: streptavidin ELISA plate; Rituximab 66.0 to 0.03 nM; absorbance at 450 nm
# Procedure: To confirm Rituximab binding to the sequences identified in Example 22, the peptides in Table 1 were prepared by Fmoc-based solid phase synthesis. Peptides were biotinylated at either the N-terminal or through the […] side chain with a long chain biotin (LCBiot). Biotinylated peptides were bound to streptavidin ELISA plates. Rituximab in PBST was applied to the array in a dilution series ranging from 66.0 to 0.03 nM using three-fold dilution steps. Plates were incubated for 1 hr at 37° C. and washed 3× with PBST. An anti-human IgG-HRP conjugate was applied to the array at 1.0 μg/mL for 1 hr at 37° C. Plates were washed 3× with PBST and TMB substrate applied for 15 min at 37° C. followed by 2N HCl to stop the reaction. Absorbance was read at 450 nm and the median of triplicate wells plotted against mAb concentration in FIG. 19. Rituximab bound constrained peptide HTP115 but not linear version HTP113 or a constrained sequence with LCBiot at the N-terminal (HTP114). Rituximab also binds to HTP116, a biotinylated version of a cyclic disulfide sequence previously reported to bind to Rituximab (Perosa et al. Blood, 2006, 107 (3), 1070-1077).
Molecule,"ring closure, fraction oxidized by MALDI ([1]; 20-membered ring)",Rituximab binding to biotinyl peptide (Rituximab [3]),also measured
COc1cc(OC)c([P+](CC(=O)N[C@@H](CCCCN)C(=O)N[C@@H](CS)C(=O)N[C@H](C(=O)N2CCC[C@H]2C(=O)NCC(=O)N[C@@H](Cc2c[nH]cn2)C(=O)N[C@@H](CS)C(=O)N[C@@H](CC(C)C)C(=O)NCCCC[C@@H]2NC(=O)[C@@H]3CCCN3C2=O)[C@@H](C)O)(c2c(OC)cc(OC)cc2OC)c2c(OC)cc(OC)cc2OC)c(OC)c1,0.63,,
COc1cc(OC)c([P+](CC(=O)N[C@@H](CS)C(=O)N[C@H](C(=O)N2CCC[C@H]2C(=O)NCC(=O)N[C@@H](Cc2c[nH]cn2)C(=O)N[C@@H](CS)C(=O)NCCCC[C@@H]2NC(=O)[C@@H]3CCCN3C2=O)[C@@H](C)O)(c2c(OC)cc(OC)cc2OC)c2c(OC)cc(OC)cc2OC)c(OC)c1,0.79,,
COc1cc(OC)c([P+](CC(=O)N[C@@H](CS)C(=O)N[C@H](C(=O)N[C@@H](CCC(N)=O)C(=O)N[C@@H](Cc2c[nH]cn2)C(=O)N[C@@H](Cc2ccc(O)cc2)C(=O)N[C@@H](CS)C(=O)NCCCC[C@@H]2NC(=O)[C@@H]3CCCN3C2=O)[C@@H](C)O)(c2c(OC)cc(OC)cc2OC)c2c(OC)cc(OC)cc2OC)c(OC)c1,0.75,,
COc1cc(OC)c([P+](CC(=O)N[C@@H](CS)C(=O)N[C@@H](CS)C(=O)NCCCC[C@@H]2NC(=O)[C@@H]3CCCN3C2=O)(c2c(OC)cc(OC)cc2OC)c2c(OC)cc(OC)cc2OC)c(OC)c1 [TMPP-Ac-Cys-Cys-DKP [DKP = N-epsilon of cyclo(Lys-Pro)]],,,"ring closure, fraction oxidized by MALDI ([1]; 8-membered ring): 0.8"
BAEANPSX,,,"change of Rituximab binding upon Click cyclization (Rituximab [2]; cyclic versus linear feature, Click array): not; change of Rituximab binding upon lactam based cyclization (Rituximab [2]; cyclic versus linear feature, lactam array): increases; Rituximab binding on lactam array (rank among binders) (Rituximab [2]; lactam array, 24.0 nM Rituximab): amongst the top Rituximab binders"
"LCBiot-ACPYANPSLC amide (cyclic disulfide) [HTP116, reference compound]",,binds,
LCBiot-K(Ac)AEANPSQ amide [HTP113],,not,
LCBiot-cyclo[KeAEANPSQ] [HTP114],,not,
cyclo[KεAEANPSQ(LCBiot)] amide [HTP115],,bound,
